In US12084434B2 (Scorpion Therapeutics, Inc., priority 2021, dated 2024) one finds IC50 and Kd data, which are given here for 24 compounds.

The term IC50 denotes the concentration at which inhibition is half-maximal. For orientation: Kd means the constant that tells how readily two partners part at equilibrium.

Assay [1] deals with T47D pAKT (S473), PI3Kα H1047R mutation present. The assay can be described thus: HTRF pAKT-T47D. (In general: TR-FRET usually uses a lanthanide donor and a delayed reading to cut background.)
Assay [2] concerns the target T1, PI3Kα H1047R protein (p110-α H1047R complexed with truncated p85-α) (Homo sapiens, UniProt P42336, H1047R).
T1 construct: The protein contained a full-length p110-α subunit harboring the H1047R mutation
Briefly: Surface Plasmon Resonance (SPR) binding, wortmannin-blocked protein. The conditions noted are these: Biacore 8K, ATP site blocked with 1 μM wortmannin, 25° C. The method, then:
Surface Plasmon Resonance (SPR)
SPR experiments were performed on a Biacore 8K instrument. A biotinylated recombinant PI3Kα H1047R protein was used in this study. The protein contained a full-length p110-α subunit harboring the H1047R mutation with an N-terminal AviTag, complexed with a truncated p85-α subunit (amino acid residues 322-694). The protein was first incubated with 1 μM wortmannin for 30 min at RT to covalently block the ATP binding site, then immobilized onto a streptavidin sensor chip by flowing the protein through the sensor chip at typically 20 μg/mL concentration and 2 μL/min flow rate for 1200 seconds. Compound binding affinities were measured in the multi-cycle kinetics mode, at 90 μL/min flow rate with 90 seconds association time and 240 seconds dissociation time. The running buffer contained 50 mM Tris, pH 7.5, 150 mM NaCl, 0.01% Brij35, 1 mM DTT, 1 mM MgCl2, 0.05% Tween-20 and 2% DMSO. Temperature was maintained at 25° C. during experiments.
A general note: Surface plasmon resonance follows binding to a sensor surface in real time, without labels.

[3] abbreviates: Homo sapiens, T47D, 1 h, read-out: T47D pAKT IC50 (nM), T47D.1 cells, pAKT (S473) HTRF, 1 hour.

Read-outs that look alike come from different tables or passages of the source. A value given as a limit tells only on which side of the number the result lay.
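Throughout, for IC50: assay medium was RPMI with 10% FBS and 0.2 units/ml bovine insulin, without phenol red.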

T1 sequence (P42336 whole entry H1047R, the tested form may be a part): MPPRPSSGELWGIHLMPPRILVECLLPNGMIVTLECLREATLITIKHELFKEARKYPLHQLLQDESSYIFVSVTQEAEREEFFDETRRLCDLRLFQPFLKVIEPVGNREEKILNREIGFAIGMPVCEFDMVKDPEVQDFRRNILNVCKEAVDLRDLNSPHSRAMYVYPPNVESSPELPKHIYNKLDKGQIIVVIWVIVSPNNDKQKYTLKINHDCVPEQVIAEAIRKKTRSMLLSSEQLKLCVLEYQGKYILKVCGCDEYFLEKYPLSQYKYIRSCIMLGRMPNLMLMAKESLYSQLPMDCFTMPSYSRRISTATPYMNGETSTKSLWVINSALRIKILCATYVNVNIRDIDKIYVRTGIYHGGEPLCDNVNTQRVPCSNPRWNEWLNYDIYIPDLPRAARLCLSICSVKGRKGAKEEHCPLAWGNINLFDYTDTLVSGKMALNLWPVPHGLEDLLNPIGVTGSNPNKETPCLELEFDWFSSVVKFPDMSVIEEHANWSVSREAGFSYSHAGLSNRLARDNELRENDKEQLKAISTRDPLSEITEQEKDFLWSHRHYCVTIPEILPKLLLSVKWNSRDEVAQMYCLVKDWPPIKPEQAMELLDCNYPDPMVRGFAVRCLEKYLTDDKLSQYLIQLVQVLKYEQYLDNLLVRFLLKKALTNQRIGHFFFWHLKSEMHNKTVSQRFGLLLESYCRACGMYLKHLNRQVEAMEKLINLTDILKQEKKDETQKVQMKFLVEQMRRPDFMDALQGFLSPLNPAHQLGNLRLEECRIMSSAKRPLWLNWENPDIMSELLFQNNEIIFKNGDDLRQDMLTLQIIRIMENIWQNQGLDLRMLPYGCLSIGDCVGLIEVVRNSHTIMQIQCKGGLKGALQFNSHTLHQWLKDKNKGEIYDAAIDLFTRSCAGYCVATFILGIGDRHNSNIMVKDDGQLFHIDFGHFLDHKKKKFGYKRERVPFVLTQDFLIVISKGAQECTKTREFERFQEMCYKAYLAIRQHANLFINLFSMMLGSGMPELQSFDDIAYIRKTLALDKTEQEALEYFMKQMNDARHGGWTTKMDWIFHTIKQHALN
T1 sequence (P27986 322-694 partner limits assumed): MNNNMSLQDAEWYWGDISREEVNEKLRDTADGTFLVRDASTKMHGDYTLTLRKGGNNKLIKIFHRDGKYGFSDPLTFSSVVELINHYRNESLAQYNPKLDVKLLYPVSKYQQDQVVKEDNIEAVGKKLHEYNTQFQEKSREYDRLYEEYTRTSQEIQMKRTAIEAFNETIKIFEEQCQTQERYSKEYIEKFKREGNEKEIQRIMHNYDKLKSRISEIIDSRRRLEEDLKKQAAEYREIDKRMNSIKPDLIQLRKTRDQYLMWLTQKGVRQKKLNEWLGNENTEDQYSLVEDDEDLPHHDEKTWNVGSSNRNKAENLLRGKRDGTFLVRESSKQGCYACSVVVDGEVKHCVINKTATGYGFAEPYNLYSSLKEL

On to `Cc1c([C@@H](NC(=O)Nc2ccc(N)nc2)C(C)C)oc2ccc(F)cc12` [Compound 38, (S)-1-(6-aminopyridin-3-yl)-3-(1-(5-fluoro-3-methylbenzofuran-2-yl)-2-methylpropyl)urea], for which the IC50 in assay [1] (setting [3]) is under 1000 nM. The Kd in assay [2] was 100 to 250 nM.

As to `Cc1c([C@@H](NC(=O)Nc2cnc(N)nc2)C(C)C)oc2ccc(F)cc12` [Compound 39, (S)-1-(2-aminopyrimidin-5-yl)-3-(1-(5-fluoro-3-methylbenzofuran-2-yl)-2-methylpropyl)urea], the IC50 in assay [1] (setting [3]) is under 1000 nM. In addition, in assay [2], the Kd was under 100 nM.

For the compound `Cc1c([C@@H](NC(=O)Nc2ccnc(C(N)=O)c2)C(C)C)oc2ccc(F)cc12` [Compound 40, (S)-4-(3-(1-(5-fluoro-3-methylbenzofuran-2-yl)-2-methylpropyl)ureido)picolinamide], in assay [1] (setting [3]), the IC50 is 1000 to 5000 nM. Further, the dissociation constant Kd in assay [2] lay in the range of 250 to 500 nM.

In the case of `Cc1c([C@@H](NC(=O)Nc2ccc(C(N)=O)nc2)C(C)C)oc2ccc(F)cc12` [Compound 41, (S)-5-(3-(1-(5-fluoro-3-methylbenzofuran-2-yl)-2-methylpropyl)ureido)picolinamide], the IC50 in assay [1] (setting [3]) is under 1000 nM. In assay [2], the Kd was under 100 nM.

As to `Cc1c([C@@H](NC(=O)N[C@@H]2CCCS(=O)(=O)C2)C(C)C)oc2ccc(F)cc12` [Compound 43, 1-((R)-1,1-dioxidotetrahydro-2H-thiopyran-3-yl)-3-((S)-1-(5-fluoro-3-methylbenzofuran-2-yl)-2-methylpropyl)urea], the IC50 in assay [1] (setting [3]) lay within 1000 to 5000 nM. In assay [2], the Kd fell in the range of 100 to 250 nM.

On to `Cc1c([C@@H](NC(=O)N[C@H]2CCCS(=O)(=O)C2)C(C)C)oc2ccc(F)cc12` [Compound 44, 1-((S)-1,1-dioxidotetrahydro-2H-thiopyran-3-yl)-3-((S)-1-(5-fluoro-3-methylbenzofuran-2-yl)-2-methylpropyl)urea], for which the IC50 in assay [1] (setting [3]) lay in the range of 1000 to 5000 nM. In addition, the Kd in assay [2] lay within 250 to 500 nM.

Consider `Cc1c([C@@H](NC(=O)Nc2cncc(C(N)=O)c2)C2CC2)oc2ccc(F)cc12` [Compound 45, (S)-5-(3-(cyclopropyl(5-fluoro-3-methylbenzofuran-2-yl)methyl)ureido)nicotinamide], for which, in assay [1] (setting [3]), the IC50 is 1000 to 5000 nM. The dissociation constant Kd in assay [2] is 100 to 250 nM.

On to `Cc1c([C@@H](NC(=O)Nc2cn[nH]c2)C(C)C)oc2ccc(F)cc12` [Compound 47, (S)-1-(1-(5-fluoro-3-methylbenzofuran-2-yl)-2-methylpropyl)-3-(1H-pyrazol-4-yl)urea], for which the IC50 in assay [1] (setting [3]) lay within 1000 to 5000 nM. The Kd in assay [2] is 100 to 250 nM.

For the compound `Cc1c([C@@H](NC(=O)Nc2ccc(S(N)(=O)=O)nc2)C2CC2)oc2ccc(F)cc12` [Compound 48, (S)-5-(3-(cyclopropyl(5-fluoro-3-methylbenzofuran-2-yl)methyl)ureido)pyridine-2-sulfonamide], the IC50 in assay [1] (setting [3]) is 1000 to 5000 nM. For the same compound, the Kd in assay [2] is 100 to 250 nM.

As to `Cc1c([C@@H](NC(=O)Nc2cccc(C(N)=O)c2)C(C)C)oc2c(F)cc(F)cc12` [Compound 52, (S)-3-(3-(1-(5,7-difluoro-3-methylbenzofuran-2-yl)-2-methylpropyl)ureido)benzamide], the IC50 in assay [1] (setting [3]) is under 1000 nM. The Kd in assay [2] is under 100 nM.

With `Cc1c([C@@H](NC(=O)Nc2cncc(C(=O)N(C)C)c2)C(C)C)oc2ccc(F)cc12` [Compound 56, (S)-5-(3-(1-(5-fluoro-3-methylbenzofuran-2-yl)-2-methylpropyl)ureido)-N,N-dimethylnicotinamide], the IC50 in assay [1] (setting [3]) is under 1000 nM. For the same compound, in assay [2], the Kd was under 100 nM.

In the case of `Cc1c([C@@H](NC(=O)Nc2cnc(C(=O)N(C)C)nc2)C(C)C)oc2ccc(F)cc12` [Compound 59, (S)-5-(3-(1-(5-fluoro-3-methylbenzofuran-2-yl)-2-methylpropyl)ureido)-N,N-dimethylpyrimidine-2-carboxamide], the IC50 in assay [1] (setting [3]) was under 1000 nM. The Kd in assay [2] fell in the range of 100 to 250 nM.

For `CNC(=O)c1cncc(NC(=O)N[C@H](c2oc3ccc(F)cc3c2C)C(C)C)c1` [Compound 60, (S)-5-(3-(1-(5-fluoro-3-methylbenzofuran-2-yl)-2-methylpropyl)ureido)-N-methylnicotinamide], in assay [1] (setting [3]), the IC50 was 1000 to 5000 nM. Also, in assay [2], the Kd lay in the range of 100 to 250 nM.

For the compound `Cc1c([C@@H](NC(=O)Nc2cncc(C(=O)N3CCNCC3)c2)C(C)C)oc2ccc(F)cc12` [Compound 61, (S)-1-(1-(5-fluoro-3-methylbenzofuran-2-yl)-2-methylpropyl)-3-(5-(piperazine-1-carbonyl)pyridin-3-yl)urea], the IC50 in assay [1] (setting [3]) was 1000 to 5000 nM. The Kd in assay [2] fell in the range of 100 to 250 nM.

Regarding `Cc1c([C@@H](NC(=O)Nc2cncc(C(=O)O)c2)C(C)C)oc2ccc(F)cc12` [Compound 62, (S)-5-(3-(1-(5-fluoro-3-methylbenzofuran-2-yl)-2-methylpropyl)ureido)nicotinic acid], in assay [1] (setting [3]), the IC50 is over 5000 nM. The Kd in assay [2] was under 100 nM.

As to `Cc1c([C@@H](NC(=O)Nc2cncc(C(=O)N3CCC3)c2)C(C)C)oc2ccc(F)cc12` [Compound 63, (S)-1-(5-(azetidine-1-carbonyl)pyridin-3-yl)-3-(1-(5-fluoro-3-methylbenzofuran-2-yl)-2-methylpropyl)urea], in assay [1] (setting [3]), the IC50 was under 1000 nM. Also, the Kd in assay [2] is under 100 nM.

Consider `Cc1c([C@@H](NC(=O)Nc2ccc(C(=O)N3CC(F)C3)nc2)C(C)C)oc2ccc(F)cc12` [Compound 64, (S)-1-(1-(5-fluoro-3-methylbenzofuran-2-yl)-2-methylpropyl)-3-(6-(3-fluoroazetidine-1-carbonyl)pyridin-3-yl)urea], for which the IC50 in assay [1] (setting [3]) is 1000 to 5000 nM. For the same compound, the Kd in assay [2] was under 100 nM.

Turning to `Cc1c([C@@H](NC(=O)Nc2ccc(C(=O)N(C)C)nc2)C(C)C)oc2ccc(F)cc12` [Compound 65, (S)-5-(3-(1-(5-fluoro-3-methylbenzofuran-2-yl)-2-methylpropyl)ureido)-N,N-dimethylpicolinamide], the IC50 in assay [1] (setting [3]) lay within 1000 to 5000 nM. In addition, the Kd in assay [2] is 100 to 250 nM.

With `Cc1c([C@@H](NC(=O)Nc2cnc(N)nc2)C(C)C)oc2ccc(F)cc12` [Compound 66, (S)-1-(2-aminopyrimidin-5-yl)-3-(1-(5-fluoro-3-methylbenzofuran-2-yl)-2-methylpropyl)urea], the IC50 in assay [1] (read-out: T47D pAKT IC50, T47D.1 cells, pAKT (S473) HTRF, 1 hour) is 1000 to 5000 nM. For the same compound, the Kd in assay [2] was under 100 nM.

Take `Cc1c([C@@H](NC(=O)Nc2ccc(N3CCC3)nc2)C(C)C)oc2ccc(F)cc12` [Compound 71, (S)-1-(6-(azetidin-1-yl)pyridin-3-yl)-3-(1-(5-fluoro-3-methylbenzofuran-2-yl)-2-methylpropyl) urea]: in assay [1] (setting [3]), the IC50 is under 1000 nM. Besides, the Kd in assay [2] is under 100 nM.

For `Cc1c([C@@H](NC(=O)Nc2cnc(N3CC(F)(F)C3)nc2)C(C)C)oc2ccc(F)cc12` [Compound 72, (S)-1-(2-(3,3-difluoroazetidin-1-yl)pyrimidin-5-yl)-3-(1-(5-fluoro-3-methylbenzofuran-2-yl)-2-methylpropyl)urea], the IC50 in assay [1] (setting [3]) is under 1000 nM. Besides, the Kd in assay [2] was under 100 nM.

For `Cc1c([C@@H](NC(=O)Nc2cnc(N3CC(F)C3)nc2)C(C)C)oc2ccc(F)cc12` [Compound 73, (S)-1-(1-(5-fluoro-3-methylbenzofuran-2-yl)-2-methylpropyl)-3-(2-(3-fluoroazetidin-1-yl)pyrimidin-5-yl)urea], the IC50 in assay [1] (setting [3]) is under 1000 nM. In assay [2], the Kd was under 100 nM.

Turning to `Cc1c([C@@H](NC(=O)Nc2cnc(N3CCC3)nc2)C(C)C)oc2ccc(F)cc12` [Compound 74], the IC50 in assay [1] (setting [3]) was under 1000 nM. In addition, the Kd in assay [2] was under 100 nM.

Regarding `Cc1c([C@@H](NC(=O)Nc2cnc(N)nc2)C(C)C)oc2c(F)cc(F)cc12` [Compound 75, (S)-1-(2-aminopyrimidin-5-yl)-3-(1-(5,7-difluoro-3-methylbenzofuran-2-yl)-2-methylpropyl)urea], the IC50 in assay [1] (setting [3]) was under 1000 nM. Besides, in assay [2], the Kd is under 100 nM.
